13 compounds from patent publication US9131690B2, “Macrocyclic picolinamides as fungicides” (Dow AgroSciences LLC, priority 2012, dated 2015) can be followed below.

Where two headings read alike, the source gives them in different places.

The subject of data set [1] is Mycosphaerella graminicola; Anamorph: Septoria tritici. Put plainly: Fungicidal activity: Leaf Blotch of Wheat (SEPTTR), wheat plants variety Yuma. It is filed as in vivo. The arrangement: key to SEPTTR 3DC Disease Control: A: 50-100; B: More than 0-Less than 50; C: Not Tested; D: No activity noticed in this bioassay. The conditions noted are these: for pest or weed control at 100 ppm: Zymoseptoria tritici. The gist of the method:
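Greenhouse wheat seedlings at first-leaf stage, 7-10 per pot, inoculated with aqueous Septoria tritici spore suspension before or after fungicide treatment. Kept at 100% relative humidity (1 day dark dew chamber, then 2-3 days lighted), then greenhouse at 20° C. for disease development.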

In data set [2] the test system is Puccinia triticina. Synonym: Puccinia recondite f. sp. tritici. The experiment in a line: Fungicidal activity: Wheat Brown Rust (PUCCRT), wheat plants variety Yuma. It counts as in vivo. As to conditions: Puccinia triticina. The gist of the method: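 Yuma wheat seedlings at first-leaf stage were inoculated with P. triticina spore suspension before or after fungicide treatment. Plants were held overnight at 100% relative humidity, then kept in a 24 C greenhouse for disease development.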

The mark [3] stands for this setting: 24 h, 1 Day Protectant, read-out: SEPTTR 1DP Disease Control.
The mark [4] stands for this setting: 72 h, 3 Day Curative, read-out: SEPTTR 3DC Disease Control.
Where [5] appears, read: 24 h, 1 Day Protectant, read-out: PUCCRT 1DP Disease Control.
Setting [6] is: 72 h, 3 Day Curative, read-out: PUCCRT 3DC Disease Control.

`COc1ccnc(C(=O)N[C@H]2COC(=O)[C@H](CC3CCCCC3)[C@@H](OC(=O)C(C)C)[C@H](C)OC2=O)c1OC(C)=O` [Compound 66, (3S,6S,7R,8R)-3-(3-acetoxy-4-methoxypicolinamido)-8-(cyclohexylmethyl)-6-methyl-4,9-dioxo-1,5-dioxonan-7-yl isobutyrate] showed a melting point of 164 to 170 °C. For the same compound, the pest or weed control at 100 ppm in data set [1] (setting [3]) was 50 to 100%. Moreover, in data set [1] (setting [4]), the pest or weed control at 100 ppm lay within 50 to 100%. For the same compound, the pest or weed control at 100 ppm in data set [2] (setting [5]) was 50 to 100%. Besides, in data set [2] (setting [6]), the pest or weed control at 100 ppm lay in the range of 50 to 100%.

With `COc1ccnc(C(=O)N[C@H]2COC(=O)[C@H](Cc3ccc(Cl)nc3)[C@@H](OC(=O)C(C)C)[C@H](C)OC2=O)c1O` [Compound 7], the melting point lay within 148 to 152 °C. For the same compound, in data set [1] (setting [3]), the pest or weed control at 100 ppm was in the range of 0 to 50%. In addition, in data set [1] (setting [4]), the pest or weed control at 100 ppm was in the range of 0 to 50%. Moreover, the pest or weed control at 100 ppm in data set [2] (setting [5]) lay in the range of 50 to 100%. Besides, the pest or weed control at 100 ppm in data set [2] (setting [6]) lay in the range of 50 to 100%.

With `CCC[C@H]1C(=O)OC[C@H](NC(=O)c2nccc(OC)c2O)C(=O)O[C@@H](C)[C@@H]1OC(=O)C(C)C` [Compound 64], the melting point lay in the range of 165 to 168 °C. Further, the pest or weed control at 100 ppm in data set [1] (setting [3]) was in the range of 50 to 100%. In addition, the pest or weed control at 100 ppm in data set [1] (setting [4]) was 50 to 100%. In data set [2] (setting [5]), the pest or weed control at 100 ppm lay in the range of 50 to 100%. Further, in data set [2] (setting [6]), the pest or weed control at 100 ppm was in the range of 0 to 50%.

For `COc1ccnc(C(=O)N[C@H]2COC(=O)[C@H](CCOC(=O)c3ccccc3)[C@@H](OC(=O)C(C)C)[C@H](C)OC2=O)c1OCOC(=O)C(C)C` [Compound 19, 2-((3S,7R,8R,9S)-8-(isobutyryloxy)-3-(3-(isobutyryloxymethoxy)-4-methoxypicolinamido)-9-methyl-2,6-dioxo-1,5-dioxonan-7-yl)ethyl benzoate], the melting point is 48 to 50 °C. Moreover, the pest or weed control at 100 ppm in data set [1] (setting [3]) lay within 50 to 100%. Further, the pest or weed control at 100 ppm in data set [1] (setting [4]) lay within 0 to 50%. Also, the pest or weed control at 100 ppm in data set [2] (setting [5]) lay within 50 to 100%. Besides, the pest or weed control at 100 ppm in data set [2] (setting [6]) lay within 50 to 100%.

The compound `COc1ccnc(C(=O)N[C@H]2COC(=O)[C@H](CCc3cccnc3)[C@@H](OC(=O)C(C)C)[C@H](C)OC2=O)c1O` [Compound 59] registered a melting point of 169 to 170 °C. Besides, in data set [1] (setting [3]), the pest or weed control at 100 ppm was 0 to 50%. In addition, the pest or weed control at 100 ppm in data set [1] (setting [4]) was in the range of 0 to 50%. Besides, the pest or weed control at 100 ppm in data set [2] (setting [5]) lay in the range of 50 to 100%. Further, in data set [2] (setting [6]), the pest or weed control at 100 ppm is 0 to 50%.

Compound `COc1ccnc(C(=O)N[C@H]2COC(=O)[C@H](CCOC(=O)c3c(F)c(F)c(F)c(F)c3F)[C@@H](OC(=O)C(C)C)[C@H](C)OC2=O)c1O` [Compound 43] displayed a melting point of 167 to 168 °C. For the same compound, the pest or weed control at 100 ppm in data set [1] (setting [3]) lay in the range of 50 to 100%. For the same compound, the pest or weed control at 100 ppm in data set [1] (setting [4]) fell in the range of 0 to 50%. Further, the pest or weed control at 100 ppm in data set [2] (setting [5]) was in the range of 50 to 100%. The pest or weed control at 100 ppm in data set [2] (setting [6]) is 0 to 50%.

Turning to `COc1ccnc(C(=O)N[C@H]2COC(=O)[C@H](Cc3ccc(C)cc3)[C@@H](OC(=O)C(C)C)[C@H](C)OC2=O)c1O` [Compound 4], the melting point lay within 175 to 179 °C. The pest or weed control at 100 ppm in data set [1] (setting [3]) was 50 to 100%. In data set [1] (setting [4]), the pest or weed control at 100 ppm lay in the range of 0 to 50%. In addition, in data set [2] (setting [5]), the pest or weed control at 100 ppm is 50 to 100%. In addition, the pest or weed control at 100 ppm in data set [2] (setting [6]) was in the range of 0 to 50%.

Consider `COc1ccnc(C(=O)N[C@H]2COC(=O)[C@H](Cc3cccc(-c4ccccc4)c3)[C@@H](OC(=O)C(C)C)[C@H](C)OC2=O)c1OCOC(=O)C(C)C` [Compound 25], for which the melting point is 55 to 68 °C. Also, the pest or weed control at 100 ppm in data set [1] (setting [3]) was in the range of 50 to 100%. Also, the pest or weed control at 100 ppm in data set [1] (setting [4]) was in the range of 0 to 50%. In addition, the pest or weed control at 100 ppm in data set [2] (setting [5]) was in the range of 50 to 100%. The pest or weed control at 100 ppm in data set [2] (setting [6]) was in the range of 50 to 100%.

In the case of `COc1ccnc(C(=O)N[C@H]2COC(=O)[C@H](CC3CCCCC3)[C@@H](OC(=O)C(C)C)[C@H](C)OC2=O)c1OCOC(=O)C(C)C` [Compound 27], the melting point is 117 to 119 °C. The pest or weed control at 100 ppm in data set [1] (setting [3]) was in the range of 0 to 50%. Moreover, the pest or weed control at 100 ppm in data set [1] (setting [4]) lay within 0 to 50%. Also, in data set [2] (setting [5]), the pest or weed control at 100 ppm was 0 to 50%. Moreover, in data set [2] (setting [6]), the pest or weed control at 100 ppm lay within 0 to 50%.

`COc1ccnc(C(=O)N[C@H]2COC(=O)[C@H](CCOCc3ccccc3)[C@@H](OC(=O)C(C)C)[C@H](C)OC2=O)c1O` [Compound 60, (3S,6S,7R,8R)-8-(2-(benzyloxy)ethyl)-3-(3-hydroxy-4-methoxypicolinamido)-6-methyl-4,9-dioxo-1,5-dioxonan-7-yl isobutyrate] gave a melting point of 139 to 140 °C. For the same compound, the pest or weed control at 100 ppm in data set [1] (setting [3]) was in the range of 50 to 100%. Moreover, the pest or weed control at 100 ppm in data set [1] (setting [4]) was 0 to 50%. Further, the pest or weed control at 100 ppm in data set [2] (setting [5]) lay in the range of 50 to 100%. The pest or weed control at 100 ppm in data set [2] (setting [6]) lay within 50 to 100%.

On to `COc1ccnc(C(=O)N[C@H]2COC(=O)[C@H](Cc3cccnc3)[C@@H](OC(=O)C(C)C)[C@H](C)OC2=O)c1OCOC(=O)C(C)C` [Compound 23], for which the melting point fell in the range of 171 to 174 °C. Besides, the pest or weed control at 100 ppm in data set [1] (setting [3]) fell in the range of 0 to 50%. Also, in data set [1] (setting [4]), the pest or weed control at 100 ppm was 0 to 50%. Besides, the pest or weed control at 100 ppm in data set [2] (setting [5]) was 50 to 100%. In addition, the pest or weed control at 100 ppm in data set [2] (setting [6]) was in the range of 50 to 100%.

For `COc1ccnc(C(=O)N[C@H]2COC(=O)[C@H](Cc3cccnc3)[C@@H](OC(=O)C(C)C)[C@H](C)OC2=O)c1OC(C)=O` [Compound 70], the melting point is 151 to 160 °C. Moreover, the pest or weed control at 100 ppm in data set [1] (setting [3]) lay in the range of 0 to 50%. In data set [1] (setting [4]), the pest or weed control at 100 ppm lay in the range of 0 to 50%. Besides, the pest or weed control at 100 ppm in data set [2] (setting [5]) was 50 to 100%. The pest or weed control at 100 ppm in data set [2] (setting [6]) lay within 50 to 100%.

Regarding `COc1ccnc(C(=O)N[C@H]2COC(=O)[C@H](C)[C@@H](OC(=O)C(C)C)[C@H](C)OC2=O)c1O` [Compound 46, (3S,6S,7R,8R)-3-(3-hydroxy-4-methoxypicolinamido)-6,8-dimethyl-4,9-dioxo-1,5-dioxonan-7-yl isobutyrate], the melting point fell in the range of 198 to 200 °C. The “SEPTTR 3DC Disease Control” value in data set [1] (100 ppm, 3 Day Curative) is recorded as “D”. Besides, the pest or weed control at 100 ppm in data set [1] (setting [3]) was 50 to 100%. In data set [2] (setting [5]), the pest or weed control at 100 ppm is 50 to 100%. The pest or weed control at 100 ppm in data set [2] (setting [6]) lay in the range of 0 to 50%.
